According to US6737383B1, “Herbicidal oxadiazolidines” (priority 1999, dated 2004):

Assays:
[1] = test system: duck salad; test: Test B flood test duck salad; assay type: in vivo, Heteranthera limosa
How it was run: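 Plants were grown to the 2-leaf stage before treatment with test chemical, then held in a greenhouse for twelve to sixteen days. Injury was visually rated against untreated controls on a 0–10 scale, where 0 is no effect and 10 is complete control.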

[2] = test system: winter wheat; test: Test E winter wheat; assay type: in vivo, Triticum aestivum; details: Preemergence
[3] = test system: winter wheat; test: Test E winter wheat; assay type: in vivo, Triticum aestivum; details: Postemergence
How it was run: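 Postemergence: spray at 1–4 leaf stage, soil 60:40 sandy loam:potting mix; solvent + surfactant formulation; greenhouse 21–28 d; visual injury vs untreated controls.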

[4] = test system: wild oat; test: Test E wild oat; assay type: in vivo, Avena fatua; details: Preemergence
[5] = test system: Italian ryegrass; test: Test E Italian ryegrass; assay type: in vivo, Lolium multiflorum; details: Preemergence
[6] = test system: winter barley; test: Test E winter barley; assay type: in vivo, Hordeum vulgare; details: Preemergence
[7] = test system: green foxtail; test: Test E green foxtail; assay type: in vivo, Setaria viridis; details: Preemergence
[8] = test system: velvetleaf; test: Test B pre/postemergence velvetleaf; assay type: in vivo, Abutilon theophrasti
How it was run: (§1)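 Response is a visual 0-to-10 score relative to untreated plants, where 0 means no effect and 10 means complete control, taken twelve to sixteen days after application. Treatments went onto soil at planting and onto foliage of 1- to 4-leaf plants, using a surfactant-containing non-phytotoxic solvent.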

[9] = test system: cocklebur; test: Test B pre/postemergence cocklebur; assay type: in vivo, Xanthium strumarium
How it was run: as §1

[10] = test system: soybean; test: Test B pre/postemergence soybean; assay type: in vivo, Glycine max
How it was run: as §1

[11] = test system: blackgrass; test: Test E blackgrass; assay type: in vivo, Alopecurus myosuroides; details: Preemergence
[12] = Rate 125 g/ha, Pre-emergence, flood test species, scale 0 to 10 where 0 is no effect and 10 is complete control
[13] = Rate 250 g/ha, Pre-emergence, flood-test species, scale 0 to 10, 0 is no effect, 10 is complete control
[14] = Rate 500 g/ha, Pre-emergence, flood test species, scale 0 to 10 (0 no effect, 10 complete control)
[15] = Rate 500 g/ha, 0 to 100 scale (0 no effect, 100 complete control)
[16] = Rate 1000 g/ha, 0 to 100 scale, 0 no effect, 100 complete control
[17] = Rate 250 g/ha, 0 to 100 scale, 0 is no effect, 100 is complete control
[18] = Rate 500 g/ha, 0 to 100 scale, 0 is no effect, 100 is complete control
[19] = Rate 250 g/ha, 0 to 100 scale, 0 no effect, 100 complete control
[20] = Postemergence, Rate 125 g/ha, scale 0 to 10, 0 is no effect, 10 is complete control
[21] = Postemergence, Rate 250 g/ha, scale 0 to 10, 0 is no effect, 10 is complete control
[22] = Preemergence, Rate 62 g/ha, scale 0 to 10 (0 no effect, 10 complete control)
[23] = Preemergence, Rate 250 g/ha, scale of 0 to 10 where 0 is no effect and 10 is complete control
[24] = Preemergence, Rate 500 g/ha, scale of 0 to 10 where 0 is no effect and 10 is complete control
[25] = Rate 62 g/ha, Postemergence, scale of 0 to 10 where 0 is no effect and 10 is complete control
[26] = Rate 500 g/ha, Postemergence, scale 0 to 10, 0 no effect, 10 complete control
[27] = Rate 125 g/ha, 0 to 100 scale (0 no effect, 100 complete control)
[28] = Preemergence, Rate 62 g/ha, scale of 0 to 10 where 0 is no effect and 10 is complete control
[29] = Rate 62 g/ha, Postemergence, scale 0 to 10 (0 no effect, 10 complete control)
[30] = Rate 125 g/ha, Postemergence, scale of 0 to 10 where 0 is no effect and 10 is complete control
[31] = Rate 250 g/ha, Postemergence, scale of 0 to 10 where 0 is no effect and 10 is complete control
[32] = Rate 500 g/ha, 0 to 100 scale where 0 is no effect and 100 is complete control
[33] = Postemergence, Rate 125 g/ha, scale of 0 to 10 where 0 is no effect and 10 is complete control
[34] = Preemergence, Rate 500 g/ha, scale 0 to 10 (0 no effect, 10 complete control)
[35] = Rate 250 g/ha, Postemergence, scale 0 to 10, 0 is no effect, 10 is complete control
[36] = Preemergence, Rate 125 g/ha, scale 0 to 10 (0 no effect, 10 complete control)

CC1CC1n1c(=O)on(C(=O)N(c2ccc(Cl)cc2)C(C)C)c1=O (stereo not shown) [Compound 369]
55: Plant response rating, Wheat (winter) [2, 15]
60: Plant response rating, Wheat (winter) ([2]; Rate 250 g/ha, 0 to 100 scale) | Plant response rating, Wheat (winter) [3, 17] | Plant response rating, Barley (winter) [6, 16]
3: Plant response rating, Velvetleaf [8, 26]
75: Plant response rating, Wild oat [4, 16]
50: Plant response rating, I. Ryegrass ([5]; Rate 250 g/ha, 0 to 100 scale) | Plant response rating, Barley (winter) [6, 15] | Plant response rating, Green foxtail ([7]; Rate 250 g/ha, 0 to 100 scale)
0: Plant response rating, Ducksalad ([1]; Postemergence (flood test), Rate 125 g/ha, scale 0 to 10, 0 is no effect, 10 is complete control) | Ducksalad plant response rating ([1]; Rate 62 g/ha, Postemergence (flood test species), scale of 0 to 10 where 0 is no effect and 10 is complete control) | Plant response rating, Ducksalad (0 to 10 scale, 0 is no effect, 10 is complete control) ([1]; Rate 62 g/ha, flood test species, Pre-emergence, visual evaluation after twelve to sixteen days) | Ducksalad plant response rating [1, 12] | Ducksalad plant response rating [1, 13] | Ducksalad plant response rating [1, 14] | Plant response rating, Velvetleaf [8, 20] | Plant response rating, Velvetleaf [8, 21] | Plant response rating, Velvetleaf [8, 22] | Velvetleaf plant response rating (0 to 10 scale) ([8]; Preemergence, Rate 125 g/ha) | Velvetleaf plant response rating [8, 23] | Velvetleaf plant response rating [8, 25] | Plant response rating, Cocklebur [9, 20] | Plant response rating, Cocklebur [9, 21] | Plant response rating, Cocklebur [9, 22] | Cocklebur plant response rating (0 to 10 scale) ([9]; Preemergence, Rate 125 g/ha) | Cocklebur plant response rating [9, 23] | Cocklebur plant response rating [9, 24] | Cocklebur plant response rating [9, 25] | Plant response rating, Cocklebur [9, 26] | Plant response rating, Soybean [10, 20] | Plant response rating, Soybean [10, 22] | Soybean plant response rating (0 to 10 scale) ([10]; Preemergence, Rate 125 g/ha) | Soybean plant response rating [10, 23] | Soybean plant response rating [10, 25]
70: Plant response rating, Wheat (winter) [2, 16] | Plant response rating, Wheat (winter) ([3]; Rate 1000 g/ha, 0 to 100 scale where 0 is no effect and 100 is complete control) | Plant response rating, Wheat (winter) [3, 18] | Plant response rating, Wild oat [4, 15] | Plant response rating, I. Ryegrass [5, 16] | Plant response rating, Barley (winter) [6, 19] | Plant response rating, Blackgrass [11, 15]
4: Soybean plant response rating [10, 24]
2: Plant response rating, Ducksalad ([1]; Rate 500 g/ha, listed under Postemergence (flood test species), scale 0 to 10, 0 no effect, 10 complete control) | Plant response rating, Ducksalad ([1]; flood test species, listed under Postemergence, Rate 250 g/ha, scale 0 to 10, 0 is no effect, 10 is complete control)
1: Plant response rating, Soybean [10, 21] | Plant response rating, Soybean [10, 26]
65: Plant response rating, Wild oat ([4]; Rate 250 g/ha, 0 to 100 scale) | Plant response rating, I. Ryegrass [5, 15]
6: Velvetleaf plant response rating [8, 24]
100: Plant response rating, Green foxtail [7, 16] | Plant response rating, Blackgrass [11, 16]
85: Plant response rating, Green foxtail [7, 15] | Plant response rating, Blackgrass ([11]; Rate 250 g/ha, 0 to 100 scale)

COC(Cn1c(=O)on(C(=O)N(c2ccc(F)cc2)C(C)C)c1=O)OC [Compound 317]
40: Plant response rating, Barley (winter) [6, 27]
4: Soybean plant response rating [10, 24] | Soybean plant response rating [10, 30]
8: Velvetleaf plant response rating [8, 24]
95: Plant response rating, Wheat (winter) [3, 17] | Plant response rating, Wheat (winter) [3, 18] | Plant response rating, I. Ryegrass [5, 15]
100: Plant response rating, Green foxtail [7, 27] | Plant response rating, Green foxtail ([7]; Rate 250 g/ha, 0 to 100 scale) | Plant response rating, Green foxtail [7, 15] | Plant response rating, Blackgrass ([11]; Rate 250 g/ha, 0 to 100 scale)
1: Velvetleaf plant response rating [8, 28] | Cocklebur plant response rating [9, 26]
0: Ducksalad plant response rating ([1]; Pre-emergence, Rate 1000 g/ha, scale 0 to 10 (0 no effect, 10 complete control)) | Ducksalad plant response rating [1, 12] | Ducksalad plant response rating [1, 13] | Ducksalad plant response rating [1, 14] | Velvetleaf plant response rating [8, 29] | Velvetleaf plant response rating [8, 30] | Plant response rating, Velvetleaf [8, 31] | Cocklebur plant response rating (0 to 10 scale) ([9]; Preemergence, Rate 125 g/ha) | Cocklebur plant response rating [9, 24] | Cocklebur plant response rating [9, 29] | Cocklebur plant response rating [9, 30] | Plant response rating, Cocklebur [9, 31] | Soybean plant response rating [10, 28] | Soybean plant response rating (0 to 10 scale) ([10]; Preemergence, Rate 125 g/ha) | Soybean plant response rating [10, 23]
50: Plant response rating, Wheat (winter) [2, 27] | Plant response rating, Wheat (winter) ([2]; Rate 250 g/ha, 0 to 100 scale) | Plant response rating, Barley (winter) [6, 19] | Plant response rating, Blackgrass [11, 27]
6: Velvetleaf plant response rating (0 to 10 scale) ([8]; Preemergence, Rate 125 g/ha) | Velvetleaf plant response rating [8, 23] | Plant response rating, Soybean [10, 31]
60: Plant response rating, Wheat (winter) [2, 15] | Plant response rating, Wild oat [4, 27] | Plant response rating, Wild oat ([4]; Rate 250 g/ha, 0 to 100 scale) | Plant response rating, I. Ryegrass [5, 27] | Plant response rating, Blackgrass [11, 15]
85: Plant response rating, I. Ryegrass ([5]; Rate 250 g/ha, 0 to 100 scale)
70: Plant response rating, Wheat (winter) ([3]; Rate 125 g/ha, 0 to 100 scale, 0 is no effect, 100 is complete control) | Plant response rating, Wild oat [4, 15] | Plant response rating, Barley (winter) [6, 15]
3: Soybean plant response rating [10, 29]

CC(C)N(C(=O)n1oc(=O)n(C(C)(C)C)c1=O)c1ccc(Cl)cc1 [Compound 118]
100: Plant response rating, Blackgrass [11, 32]
1: Soybean plant response rating [10, 33] | Soybean plant response rating [10, 25]
60: Plant response rating, I. Ryegrass ([5]; Rate 250 g/ha, 0 to 100 scale) | Plant response rating, I. Ryegrass [5, 32]
4: Velvetleaf plant response rating [8, 34]
80: Plant response rating, Blackgrass ([11]; Rate 250 g/ha, 0 to 100 scale)
70: Plant response rating, Wheat (winter) [2, 32] | Plant response rating, Wheat (winter) ([3]; Rate 500 g/ha, 0 to 100 scale, 0 no effect, 100 complete control) | Plant response rating, Wild oat [4, 32]
55: Plant response rating, Green foxtail ([7]; Rate 250 g/ha, 0 to 100 scale)
50: Plant response rating, Wheat (winter) ([2]; Rate 250 g/ha, 0 to 100 scale) | Plant response rating, Barley (winter) [6, 32]
0: Ducksalad plant response rating ([1]; Rate 250 g/ha, headed Pre-emergence (flood test species), scale 0 to 10 (0 no effect, 10 complete control)) | Plant response rating, Ducksalad ([1]; Rate 500 g/ha, headed Pre-emergence (flood test species), scale 0 to 10 (0 no effect, 10 complete control)) | Ducksalad plant response rating ([1]; Rate 1000 g/ha, Pre-emergence (as headed), scale 0 to 10) | Ducksalad plant response rating ([1]; Rate 2000 g/ha, Pre-emergence (as headed), scale 0 to 10) | Velvetleaf plant response rating [8, 33] | Velvetleaf plant response rating [8, 22] | Velvetleaf plant response rating (0 to 10 scale) ([8]; Preemergence, Rate 125 g/ha, 0 is no effect, 10 is complete control) | Plant response rating, Velvetleaf [8, 23] | Velvetleaf plant response rating [8, 25] | Plant response rating, Velvetleaf [8, 35] | Velvetleaf plant response rating [8, 26] | Cocklebur plant response rating [9, 33] | Cocklebur plant response rating ([9]; Postemergence, Rate 250 g/ha, scale 0 to 10, 0 no effect, 10 complete control) | Cocklebur plant response rating [9, 22] | Plant response rating, Cocklebur [9, 36] | Plant response rating, Cocklebur [9, 23] | Cocklebur plant response rating [9, 34] | Cocklebur plant response rating [9, 25] | Cocklebur plant response rating [9, 26] | Soybean plant response rating [10, 22] | Plant response rating, Soybean [10, 36] | Plant response rating, Soybean [10, 23] | Soybean plant response rating [10, 34]
65: Plant response rating, Wheat (winter) ([3]; Rate 250 g/ha, 0 to 100 scale (0 no effect, 100 complete control)) | Plant response rating, Barley (winter) ([6]; Rate 250 g/ha, 0 to 100 scale) | Plant response rating, Green foxtail [7, 32]
2: Plant response rating, Soybean [10, 35] | Soybean plant response rating [10, 26]
